Test results from ChEMBL document CHEMBL1121912, “Purine acyclic nucleosides. Nitrogen isosteres of 9-[(2-hydroxyethoxy)methyl]guanine as candidate antivirals” (J Med Chem, 1981).
Activity calls are given as the source filed them. The rule behind the calls is not given here.

Tests used:
Assay type in all cases: functional, organism-based
[1] = test system: Human alphaherpesvirus 1; test: The compound was tested for plaque inhibition in HSV-1 in cell culture; +=active at 50 ug per disk
[2] = test system: Human alphaherpesvirus 1; test: The compound was tested for plaque inhibition in HSV-1 in cell culture, activity is determined by plaque reduction assay
[3] = test system: Human alphaherpesvirus 1; test: The compound was tested for plaque inhibition in HSV-1 in cell culture; - = in active at 50 ug per disk

Compound	Plaque inhibition result [1]	IC50 [2] [µM]	Plaque inhibition result [3]
Nc1nc2c(ncn2COCCO)c(=O)[nH]1 [ACYCLOVIR]	active at 50 ug per disk	0.1	–
NCCOCCOCn1cnc2c(O)nc(N)nc21	–	–	inactive
CC(=O)NCCOCn1cnc2c(O)nc(N)nc21	–	–	inactive
NCCOCn1cnc2c(O)nc(N)nc21	active at 50 ug per disk	8	–
NCCOCn1cnc2c(N)nc(N)nc21	–	–	inactive
Nc1nc(O)c2ncn(COCCNCCO)c2n1	–	–	inactive
